Columns and labels:
Recombinant IKKα = molecular target: T1, Recombinant IKKα (Homo sapiens, UniProt O15111); assay: DELFIA IKKα kinase assay (apparent Ki, Cheng-Prusoff); assay type: biochemical
T1 construct: purchased Millipore, Dundee, UK
T1 sequence (O15111 1-745): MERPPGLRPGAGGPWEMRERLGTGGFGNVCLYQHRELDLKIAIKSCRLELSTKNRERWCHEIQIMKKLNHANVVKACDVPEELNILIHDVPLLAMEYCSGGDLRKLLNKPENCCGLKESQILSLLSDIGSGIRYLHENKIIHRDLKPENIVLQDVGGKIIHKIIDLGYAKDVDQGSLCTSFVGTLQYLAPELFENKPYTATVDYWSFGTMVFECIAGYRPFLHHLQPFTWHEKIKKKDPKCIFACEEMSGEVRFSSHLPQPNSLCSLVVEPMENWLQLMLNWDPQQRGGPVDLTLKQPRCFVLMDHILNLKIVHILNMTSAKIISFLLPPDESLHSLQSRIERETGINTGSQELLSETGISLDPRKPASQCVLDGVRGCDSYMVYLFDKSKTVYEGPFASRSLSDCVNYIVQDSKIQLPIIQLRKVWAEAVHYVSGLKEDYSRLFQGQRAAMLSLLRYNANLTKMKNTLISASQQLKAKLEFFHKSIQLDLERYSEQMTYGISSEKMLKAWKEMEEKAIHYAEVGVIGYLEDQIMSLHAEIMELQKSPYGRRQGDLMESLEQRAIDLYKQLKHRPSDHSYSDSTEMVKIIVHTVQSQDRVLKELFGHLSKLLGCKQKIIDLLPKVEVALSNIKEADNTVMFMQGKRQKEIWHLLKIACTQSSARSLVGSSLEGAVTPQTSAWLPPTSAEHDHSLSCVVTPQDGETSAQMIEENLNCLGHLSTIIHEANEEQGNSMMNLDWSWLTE
Procedure, shortened: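 DELFIA time-resolved fluorescence (ex 340/em 615 nm) quantified phosphorylation of a biotinylated IκB-α Ser32 peptide (0.375 μM) by 37 nM recombinant IKKα or IKKβ. Reactions used 40 μM ATP, Tris pH 7.5 buffer with MgCl2, DTT and BSA, 60 min at 30° C. Cheng-Prusoff equation gave apparent Ki.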

CHUK (IKK alpha) = molecular target: T2, CHUK (IKK alpha) (Homo sapiens, UniProt O15111); assay: Adapta IKKα assay (TR-FRET ADP formation, Life Technologies); assay type: biochemical
T2 construct: purchased Life Technologies (assay performed by the vendor)
T2 sequence (O15111 1-745): T1 sequence (O15111 1-745)
Description: IKKα and IKKβ inhibitory activity was determined using three different assays: a dissociation enhanced ligand fluorescent immunoassay (DELFIA) based on the protocol of HTScan™ IKKβ Kinase Assay (Cell Signaling Technology, USA); an Adapta IKKα assay (performed by Life Technologies); a Z′-LYTE™ IKKβ assay (performed by Life Technologies).
The reaction was performed in low-volume white 384-well plates (Corning model 4512).
The test compounds were screened in 1% DMSO (final) in the well. For 10 point titrations, 3-fold serial dilutions were conducted from the starting concentration of 50 mM.
The 2× CHUK (IKK alpha) kinase was prepared in 50 mM HEPES pH 7.5, 0.01% BRIJ-35, 10 mM MgCl2 and 1 mM EGTA. The final 10 μL kinase mixture consisted of 50-250 ng CHUK (IKK alpha) in 32.5 mM HEPES pH 7.5, 0.005% BRIJ-35, 5 mM MgCl2 and 0.5 mM EGTA. No substrate was required, as the assay measures the ability of a compound to inhibit the kinase's intrinsic ATPase activity.
5 μL of 2× Kinase mixture was incubated with 2.5 μL of ATP solution diluted to a 4×working concentration in water, in the presence of 100 nL of 100× test compound in 100% DMSO and 2.4 μL of 30 mM HEPES buffer.
After 30-second plate shake and 1-minute centrifuge at 1000×g, the resulting kinase reaction was allowed to incubate for 1 hour at room temperature before 5 μL of Detection Mix was added.
The Detection Mix, previously prepared in TR-FRET Dilution Buffer, consisted of EDTA (30 mM), Eu-anti-ADP antibody (6 nM) and an Alexa Fluor™ 647 labelled ADP tracer. The Detection Mix contained the EC60 concentration of tracer for 5-150 μM ATP.
After 30-second plate shake and 1-minute centrifuge at 1000×g, the Detection Mix was allowed to equilibrate at room temperature for 1 hour. Then the plate was read using a fluorescence plate reader configured for Adapta™ TR-FRET and the data analysed.
ADP formation was determined by calculating the emission ratio from the assay well. Therefore, the emission ratio was calculated by dividing the intensity of the tracer (acceptor) emission by the intensity of the Eu (donor) emission at 615 nm as shown in the equation below.
The IKKα and IKKb figures quoted in italicised form are from the Adapta assay described above.

[1] = non-italicised figure: DELFIA assay
[2] = DELFIA assay (first line of an example)
[3] = Adapta assay (second line of an example)

| Compound | Ki (Recombinant IKKα; [1]) | IC50 (CHUK (IKK alpha); Adapta assay) | Ki (Recombinant IKKα; [2]) | IC50 (CHUK (IKK alpha); [3]) |
| --- | --- | --- | --- | --- |
| CC(C)(C)C#Cc1cc(-c2ccnc(N)c2)cc2c(N)n[nH]c12 [Example 137, 5-(2-Aminopyridin-4-yl)-7-(3,3-dimethylbut-1-yn-1-yl)-1H-indazol-3-amine] | 53 nM | 11 nM | – | – |
| Nc1n[nH]c2c(C#CC3CCCCC3)cc(-c3ccnc4[nH]ccc34)cc12 [Example 204, 7-(Cyclohexylethynyl)-5-(1H-pyrrolo[2,3-b]pyridin-4-yl)-1H-indazol-3-amine] | – | – | 169 nM | 198 nM |
| Nc1nccc(-c2ccc3[nH]nc(N)c3c2)c1C#CC1CCCC1 [Example 73, 5-(2-Amino-3-(cyclopentylethynyl)pyridine-4-yl)-1H-indazol-3-amine] | 12 nM | 2 nM | – | – |
| CC(C)N(C)Cc1cc2c(-c3ccc4[nH]nc(N)c4c3)ccnc2[nH]1 [Example 259, 5-(2-((Isopropyl(methyl)amino)methyl)-1H-pyrrolo[2,3-b]pyridine-4-yl)-1H-indazol-3-amine] | – | – | 110 nM | 32 nM |
| CC(C)(C)OCC#Cc1c(-c2ccc3[nH]nc(N)c3c2)ccnc1N [Example 88, 5-(2-Amino-3-(3-(tert-butoxy)prop-1-yn-1-yl)pyridine-4-yl)-1H-indazol-3-amine] | 133 nM | 8 nM | – | – |
| Nc1n[nH]c2ccc(-c3ccnc4[nH]c(C5CC5)cc34)cc12 [Example 218, 5-(2-Cyclopropyl-1H-pyrrolo[2,3-b]pyridin-4-yl)-1H-indazol-3-amine] | – | – | 5 nM | 1 nM |
| Nc1nccc(-c2ccc3[nH]nc(N)c3c2)c1C#CCCCO [Example 85, 5-(2-Amino-4-(3-amino-1H-indazol-5-yl)pyridine-3-yl)pent-4-yn-1-ol] | 4 nM | 1 nM | – | – |
| CC(C)(O)C#Cc1c(-c2ccc3[nH]nc(N)c3c2)ccnc1N [Example 87, 4-(2-Amino-4-(3-amino-1H-indazol-5-yl)pyridine-3-yl)-2-methylbut-3-yn-2-ol] | 8 nM | 4 nM | – | – |
| CC(C)(C)C#Cc1cc(-c2ccnc3[nH]ccc23)cc2c(N)n[nH]c12 [Example 201, 7-(3,3-Dimethylbut-1-yn-1-yl)-5-(1H-pyrrolo[2,3-b]pyridin-4-yl)-1H-indazol-3-amine] | – | – | 62 nM | 11 nM |
| Nc1nccc(-c2ccc3[nH]nc(N)c3c2)c1C#CC1(O)CCCCCC1 [Example 91, 1-((2-Amino-4-(3-amino-1H-indazol-5-yl)pyridine-3-yl)ethynyl)cycloheptan-1-ol] | 105 nM | 7 nM | – | – |
| CC(C)(C)NCc1cc2c(-c3ccc4[nH]nc(N)c4c3)ccnc2[nH]1 [Example 248, 5-(2-((tert-Butylamino)methyl)-1H-pyrrolo[2,3-b]pyridine-4-yl)-1H-indazol-3-amine] | – | – | 202 nM | 34 nM |
| Nc1nccc(-c2ccc3[nH]nc(N)c3c2)c1C#Cc1ccccc1 [Example 75, 5-(2-Amino-3-(phenylethynyl)pyridine-4-yl)-1H-indazol-3-amine] | 10 nM | 1 nM | – | – |
| Nc1n[nH]c2ccc(-c3ccnc4[nH]c(C(=O)NC5CCCCC5)cc34)cc12 [Example 236, 4-(3-Amino-1H-indazol-5-yl)-N-cyclohexyl-1H-pyrrolo[2,3-b]pyridine-2-carboxamide] | – | – | 10 nM | 2 nM |
| Nc1nccc(-c2ccc3[nH]nc(N)c3c2)c1C#CCCO [Example 84, 4-(2-Amino-4-(3-amino-1H-indazol-5-yl)pyridine-3-yl)but-3-yn-1-ol] | 1 nM | 1 nM | – | – |
| Nc1cc(-c2cc(-c3ccccc3)c3[nH]nc(N)c3c2)ccn1 [Example 104, 5-(2-Aminopyridin-4-yl)-7-phenyl-1H-indazol-3-amine] | 54 nM | 3 nM | – | – |
| Nc1nccc(-c2ccc3[nH]nc(N)c3c2)c1C#CCO [Example 83, 3-(2-Amino-4-(3-amino-1H-indazol-5-yl)pyridine-3-yl)prop-2-yn-1-ol] | 6 nM | 1 nM | – | – |
| CC(C)(C)OCc1cc2c(-c3ccc4[nH]nc(N)c4c3)ccnc2[nH]1 [Example 227, 5-(2-(tert-Butoxymethyl)-1H-pyrrolo[2,3-b]pyridin-4-yl)-1H-indazol-3-amine] | – | – | 29 nM | 2 nM |
| C#Cc1cc(-c2ccnc3[nH]ccc23)cc2c(N)n[nH]c12 [Example 200, 7-Ethynyl-5-(1H-pyrrolo[2,3-b]pyridin-4-yl)-1H-indazol-3-amine] | – | – | 26 nM | 3.3 nM |

The remaining lines, values ahead:

| Ki (Recombinant IKKα; [1]) | IC50 (CHUK (IKK alpha); Adapta assay) | Ki (Recombinant IKKα; [2]) | IC50 (CHUK (IKK alpha); [3]) | Compound |
| --- | --- | --- | --- | --- |
| – | – | 91 nM | 13 nM | Nc1n[nH]c2ccc(-c3ccnc4[nH]c(CN5CCCCCC5)cc34)cc12 [Example 265, 5-(2-(Azepan-1-ylmethyl)-1H-pyrrolo[2,3-b]pyridine-4-yl)-1H-indazol-3-amine] |
| – | – | 11 nM | 1 nM | Nc1n[nH]c2ccc(-c3ccnc4[nH]c(CCN5CCOCC5)cc34)cc12 [Example 268, 5-(2-(2-Morpholinoethyl)-1H-pyrrolo[2,3-b]pyridin-4-yl)-1H-indazol-3-amine] |
| – | – | 91 nM | 27 nM | Nc1n[nH]c2ccc(-c3ccnc4[nH]c(CN5CCCCC5)cc34)cc12 [Example 260, 5-(2-(Piperidin-1-ylmethyl)-1H-pyrrolo[2,3-b]pyridine-4-yl)-1H-indazol-3-amine] |
| – | – | 380 nM | 41 nM | Nc1n[nH]c2ccc(-c3ccnc4[nH]c(C5CCCCN5)cc34)cc12 (stereo not drawn) [Example 250, 5-(2-(Piperidin-2-yl)-1H-pyrrolo[2,3-b]pyridine-4-yl)-1H-indazol-3-amine] |
| – | – | 11 nM | 1 nM | Nc1n[nH]c2ccc(-c3ccnc4[nH]c(CC5CCOCC5)cc34)cc12 [Example 230, 5-(2-((tetrahydro-2H-pyran-4-yl)methyl)-1H-pyrrolo[2,3-b]pyridin-4-yl)-1H-indazol-3-amine] |
| – | – | 74 nM | 6 nM | Nc1n[nH]c2ccc(-c3ccnc4[nH]c(CNC5CCCCC5)cc34)cc12 [Example 251, 5-(2-((cyclohexylamino)methyl)-1H-pyrrolo[2,3-b]339yridine-4-yl)-1H-indazol-3-amine] |
| – | – | 19 nM | 32 nM | Nc1n[nH]c2ccc(-c3ccnc4[nH]c(C(=O)N5CCCC5)cc34)cc12 [Example 234, (4-(3-Amino-1H-indazol-5-yl)-1H-pyrrolo[2,3-b]pyridin-2-yl)(pyrrolidin-1-yl)methanone] |
| – | – | 5 nM | 1 nM | Nc1n[nH]c2ccc(-c3ccnc4[nH]c(CC5CCNCC5)cc34)cc12 [Example 272, 5-(2-(Piperidin-4-ylmethyl)-1H-pyrrolo[2,3-b]pyridin-4-yl)-1H-indazol-3-amine] |
| – | – | 49 nM | 11 nM | Nc1n[nH]c2ccc(-c3ccnc4[nH]c(CN5CCC(F)(F)CC5)cc34)cc12 [Example 261, 5-(2-((4,4-Difluoropiperidin-1-yl)methyl)-1H-pyrrolo[2,3-b]pyridine-4-yl)-1H-indazol-3-amine] |

— patent publication US20250304576A1 (Cancer Research Technology Limited, priority 2022, published 2025)
